Source: ChEMBL document CHEMBL3045576, “Azadirachtin avoidance by larvae and adult females of the tomato leafminer Tuta absoluta” (2013)
Activity calls are given as the source filed them. No cut-off for these calls is given here.

Key:
[1] = tested on: Tuta absoluta; assay: Insecticidal activity against second-instar larval stage of Tuta absoluta in tomato leaves assessed as delay in larval development at 27 mg ai/L incubated for 5 s prior to larval infestation after 9 days; format: functional, organism-based
[2] = tested on: Tuta absoluta; assay: Walking avoidance activity against fourth-instar larval stage of Tuta absoluta Vicosa infested compound-pretreated filter paper assessed as effect on walking time at LC90 concentration measured for 10 min; format: functional, organism-based
[3] = tested on: Tuta absoluta; assay: Egg-laying avoidance activity against non-sexed adult stage of Tuta absoluta Vicosa in compound-pretreated tomato leaves assessed as decrease in number of eggs laid measured for 2 days by free-choice test; format: functional, organism-based
[4] = tested on: Tuta absoluta; assay: Insecticidal activity against Tuta absoluta Araguari larvae in compound-pre-treated tomato leaves assessed as mortality after 144 hr; format: functional
[5] = tested on: Tuta absoluta; assay: Resistance ratio of LC10 for Tuta absoluta Vicosa larvae to LC10 for Tuta absoluta Araguari larvae; format: functional
[6] = tested on: Tuta absoluta; assay: Walking avoidance activity against second-instar larval stage of Tuta absoluta Araguari in compound-pretreated tomato leaves assessed as decrease in walking time at LC50 to LC90 concentration measured after 6 hr; format: functional, organism-based
[7] = tested on: Tuta absoluta; assay: Egg-laying avoidance activity against non-sexed adult stage of Tuta absoluta Vicosa in compound-pretreated tomato leaves assessed as decrease in number of eggs laid at LC10 to LC90 concentration measured for 2 days by no-choice test; format: functional, organism-based
[8] = tested on: Tuta absoluta; assay: Resistance ratio of LC90 for Tuta absoluta Vicosa larvae to LC90 for Tuta absoluta Araguari larvae; format: functional
[9] = tested on: Tuta absoluta; assay: Walking avoidance activity against second-instar larval stage of Tuta absoluta Vicosa infested compound-pretreated filter paper assessed as effect on walking time at LC90 concentration measured for 10 min; format: functional, organism-based
[10] = tested on: Tuta absoluta; assay: Insecticidal activity against Tuta absoluta Vicosa larvae in compound-pre-treated tomato leaves assessed as mortality after 144 hr; format: functional
[11] = tested on: Tuta absoluta; assay: Egg-laying avoidance activity against non-sexed adult stage of Tuta absoluta Araguari in compound-pretreated tomato leaves assessed as decrease in number of eggs laid at LC10 to LC90 concentration measured for 2 days by no-choice test; format: functional, organism-based
[12] = tested on: Tuta absoluta; assay: Effect on leaf mining activity of Tuta absoluta Vicosa second-instar larvae in compound-pretreated tomato leaves assessed as length of time required to mine the leaf at LC10 to LC90 concentration; format: functional
[13] = tested on: Tuta absoluta; assay: Walking avoidance activity against second-instar larval stage of Tuta absoluta Vicosa in compound-pretreated tomato leaves assessed as decrease in walking time at LC10 concentration measured after 6 hr; format: functional, organism-based
[14] = tested on: Tuta absoluta; assay: Egg-laying avoidance activity against non-sexed adult stage of Tuta absoluta Araguari in compound-pretreated tomato leaves assessed as decrease in number of eggs laid at equal to and greater than LC50 concentration measured for 2 days by free-choice test; format: functional, organism-based
[15] = tested on: Tuta absoluta; assay: Insecticidal activity against second-instar larval stage of Tuta absoluta in tomato leaves assessed as survival rate at 1.7 mg ai/L incubated for 5 s prior to larval infestation after 9 days (reference value: >60%); format: functional; conditions: 216 h
[16] = tested on: Tuta absoluta; assay: Walking avoidance activity against fourth-instar larval stage of Tuta absoluta Araguari infested compound-pretreated filter paper assessed as effect on walking time at LC90 concentration measured for 10 min; format: functional, organism-based
[17] = tested on: Tuta absoluta; assay: Walking avoidance activity against second-instar larval stage of Tuta absoluta Araguari infested compound-pretreated filter paper assessed as effect on walking time at LC90 concentration measured for 10 min; format: functional, organism-based
[18] = tested on: Tuta absoluta; assay: Resistance ratio of LC50 for Tuta absoluta Vicosa larvae to LC50 for Tuta absoluta Araguari larvae; format: functional
[19] = tested on: Tuta absoluta; assay: Effect on leaf mining activity of Tuta absoluta Araguari second-instar larvae in compound-pretreated tomato leaves assessed as length of time required to mine the leaf at LC10 to LC90 concentration; format: functional
[20] = tested on: Tuta absoluta; assay: Walking avoidance activity against second-instar larval stage of Tuta absoluta Vicosa in compound-pretreated tomato leaves assessed as decrease in walking time at LC50 to LC90 concentration measured after 6 hr; format: functional, organism-based
[21] = tested on: Tuta absoluta; assay: Walking avoidance activity against second-instar larval stage of Tuta absoluta Araguari in compound-pretreated tomato leaves assessed as decrease in walking time at LC10 concentration measured after 6 hr; format: functional, organism-based
[22] = tested on: Tuta absoluta; assay: Insecticidal activity against second-instar larval stage of Tuta absoluta in tomato leaves assessed as survival rate at 27 mg ai/L incubated for 5 s prior to larval infestation after 9 days (reference value: >60%); format: functional; conditions: 216 h

## C/C=C(\C)C(=O)O[C@H]1C[C@@H](OC(C)=O)[C@@]2(C(=O)OC)CO[C@H]3[C@@H](O)[C@@](C)([C@]45O[C@@]4(C)[C@@H]4C[C@H]5O[C@@H]5OC=C[C@@]54O)[C@H]4[C@]1(CO[C@]4(O)C(=O)OC)[C@@H]32 [AZADIRACHTIN A]
[1]
  Activity: Active
[2]
  Activity: inactive
[3]
  inhibition: Dose-dependent effect
[4]
  LC10: 0.97 mgAi/L
  LC50: 5.62 mgAi/L
  LC90: 32.71 mgAi/L
[5]
  Ratio: 1.65
[6]
  inhibition: Active
[7]
  inhibition: inactive
[8]
  Ratio: 1.96
[9]
  Activity: inactive
[10]
  LC10: 1.59 mgAi/L
  LC50: 10.09 mgAi/L
  LC90: 64.06 mgAi/L
[11]
  inhibition: inactive
[12]
  Time: 33.56 min
[13]
  inhibition: inactive
[14]
  inhibition: Active
[15]
  survival at 1.7 µg/mL: 25%
[16]
  Activity: inactive
[17]
  Activity: inactive
[18]
  Ratio: 1.8
[19]
  Time: 38.72 min
[20]
  inhibition: Active
[21]
  inhibition: inactive
[22]
  survival at 27 µg/mL: < 4%
